Patent US10179790B2 (THOMAS HELLEDAYS STIFTELSE FOR MEDICINSK FORSKNING, priority 2014, dated 2019)
pIC50: −log10 of the molar value.

Columns and labels:
MTH1 = MTH1 (Homo sapiens, UniProt P36639); test: MTH1 enzymatic assay and IC50 value determination (malachite green, 96- and 384-well format); assay type: biochemical; settings: hydrolysis of dGTP (100 μM), MTH1 6 nM, pyrophosphatase-coupled malachite green, 15 minutes at 22° C.
Experimental: MTH1 Enzymatic Assay and IC50 Value Determination
MTH1 catalyzes the hydrolysis of dGTP to dGMP and PPi. By coupling the reaction to pyrophosphatase added in excess PPi is converted to Pi that can be detected by using the malachite green assay reagent. Two different formats were used for IC50 determinations in the enzymatic assay, 96- and 384-well format. 96-Well Method:
Briefly, the compound to be analyzed is diluted in DMSO in a 1:3 dilution series generating 12 different compound concentrations giving a final DMSO concentration of 1% in the assay well. MTH1 diluted in assay buffer (100 mM Tris-acetate, 40 mM NaCl, 10 mM magnesium acetate, 1 mM DTT and 0.005% Tween 20) fortified with E. coli pyrophosphatase (0.2 U/ml) is added to a final concentration of 6 nM. dGTP diluted in assay buffer is added to a final concentration of 100 μM. The reaction mixture is incubated for 15 minutes at 22° C. To 100 μl reaction mixture, 25 μl Malachite green assay regent (0.095% Malachite green in 17% H2SO4, 1.5% Ammonium molybdate, 0.17% Tween 20) is added, followed by incubation with shaking for 15 minutes at 22° C. The absorbance of the assay plate is read at 630 nm using a Hidex Sense Multilabel plate reader. The IC50 value is determined by fitting a dose response curve to the data points using nonlinear regression analysis and the equation Y=Bottom+(Top−Bottom)/(1+10^((Log IC50−X)*HillSlope)), where Y is the read absorbance at 630 nm and X is log [compound].
The compounds to be tested are nano-dispensed, in 11 concentrations, directly in assay plates, with a final DMSO concentration <1%. The protocol and the reaction mixture are the same as for the 96-well assay, with a total reaction volume of 50 μl/well to which 10 μl of Malachite green reagent is added. All additions to the assay plates are made with multidrop.

cancer cell = test: Cell viability assay (resazurin); assay type: cell-based; settings: 72 h; 3 days with compound, resazurin fluorescence; cell line not named
Experimental: The utility of the compounds of the present invention can be illustrated, for example, by their activity in vitro in the cancer cell clonogenic and/or viability assay described below. The link between activity in tumor cell clonogenic assay and anti-tumor activity in the clinical setting has been well established in the art (e.g. see ref Silverstini et al Stem Cells 1993, 11(6), 258-35).
Cells are seeded into 96 well plates (1000-3000 cells/well) in DMEM GlutaMAX™ or other suitable media dependent on cell line and incubated overnight in 5% CO2, 37° C. Thereafter cells are treated with compound or vehicle and left in incubator for 3 days until staining with resazurin. Cells are incubated in resazurin (diluted in suitable media) at 37° C. for 2 hours before measuring the fluorescence (Ex544/Em590).
The compounds to be tested are nano-dispensed in 11 concentrations, directly in 384-well cell plates, with a final DMSO concentration <1%. Cells are seeded in cell plates, pre-dispensed with compounds, 50 μl/well (600-1200 cells/well). After 3 days culture in 5% CO2, 37° C., resazurin diluted in PBS is added, 10 μl/well, and cells are incubated 3 hours before measuring fluorescence (Ex544/Em590).

Compound | pIC50 (MTH1) | pIC50 (cancer cell)
CNS(=O)(=O)c1ccc(NCCNc2cc(-c3cccc(C)c3C)nc(N)n2)cc1 [Example 21, 4-[(2-{[2-amino-6-(2,3-dimethylphenyl)pyrimidin-4-yl]amino}ethyl)amino]-N-methylbenzene-1-sulfonamide] | > 6.70 | > 6.30
Cc1cccc(-c2cc(NCCNc3ccnc(N)n3)nc(N)n2)c1C [Example 126, 4-N-(2-{[2-amino-6-(2,3-dimethylphenyl)pyrimidin-4-yl]amino}ethyl)pyrimidine-2,4-diamine] | > 6.70 | > 6.30
CNS(=O)(=O)c1ccc(NCCNc2cc(-c3cccc(C)c3C)nc(N)n2)nc1 [Example 3, 6-[(2-{[2-amino-6-(2,3-dimethylphenyl)pyrimidin-4-yl]amino}ethyl)amino]-N-methylpyridine-3-sulfonamide] | > 6.70 | > 6.30
Cc1cccc(-c2cc(NCCNc3ccc(N)nc3)nc(N)n2)c1C [Example 127, 5-N-(2-{[2-amino-6-(2,3-dimethylphenyl)pyrimidin-4-yl]amino}ethyl)pyridine-2,5-diamine] | > 6.70 | > 6.30
Cc1c(Cl)cccc1-c1cc(NCCc2cccc(S(C)(=O)=O)c2)nc(N)n1 [Example 52, 6-(3-chloro-2-methylphenyl)-4-N-[2-(3-methanesulfonylphenyl)ethyl]pyrimidine-2,4-diamine] | > 6.70 | > 6.30
Cc1c(-c2cc(NCCc3ccc(C(N)=O)cc3)nc(N)n2)cc(Cl)c(Cl)c1Cl [Example 75, 4-(2-{[2-amino-6-(3,4,5-trichloro-2-methylphenyl)pyrimidin-4-yl]amino}ethyl)benzamide] | > 6.70 | > 6.30
CCNC(=O)Nc1cccc(CCNc2cc(-c3cccc(Cl)c3C)nc(N)n2)c1 [Example 148, 1-[3-[2-[[2-amino-6-(3-chloro-2-methyl-phenyl)pyrimidin-4-yl]amino]ethyl]phenyl]-3-ethyl-urea] | > 6.70 | > 6.30
Cc1c(Cl)cccc1-c1cc(NCCc2cccc(NC(=O)N(C)C)c2)nc(N)n1 [Example 151, 3-[3-[2-[[2-amino-6-(3-chloro-2-methyl-phenyl)pyrimidin-4-yl]amino]ethyl]phenyl]-1,1-dimethyl-urea] | > 6.70 | > 6.30
Cc1cccc(-c2cc(NCCNc3ccc(S(N)(=O)=O)cc3F)nc(N)n2)c1C [Example 42, 4-[(2-{[2-amino-6-(2,3-dimethylphenyl)pyrimidin-4-yl]amino}ethyl)amino]-3-fluorobenzene-1-sulfonamide] | > 6.70 | > 6.30
COCCOC(=O)Nc1ccc(CCNc2cc(-c3cccc(Cl)c3C)nc(N)n2)cc1 [Example 122, 2-methoxyethyl N-[4-[2-[[2-amino-6-(3-chloro-2-methyl-phenyl)pyrimidin-4-yl]amino]ethyl]phenyl]carbamate] | > 6.70 | > 6.30
Cc1c(Cl)cccc1-c1cc(NCCc2cccc([N+](=O)[O-])c2)nc(N)n1 [Example 95, 6-(3-chloro-2-methylphenyl)-4-N-[2-(3-nitrophenyl)ethyl]pyrimidine-2,4-diamine] | > 6.70 | > 6.30
Cc1c(Cl)cccc1-c1cc(NCCOc2ccc(C(N)=O)cn2)nc(N)n1 [Example 55, 6-(2-{[2-amino-6-(3-chloro-2-methylphenyl)pyrimidin-4-yl]amino}ethoxy)pyridine-3-carboxamide] | > 6.70 | > 6.30
Cc1c(Cl)cccc1-c1cc(NCCc2cccc(NC(=O)OCC(C)(C)C)c2)nc(N)n1 [Example 155, 2,2-dimethylpropyl N-[3-[2-[[2-amino-6-(3-chloro-2-methyl-phenyl)pyrimidin-4-yl]amino]ethyl]phenyl]carbamate] | > 6.70 | > 6.30
Cc1c(Cl)cccc1-c1cc(NCCCOc2ccc(C(N)=O)cn2)nc(N)n1 [Example 206, 6-(3-{[2-amino-6-(3-chloro-2-methylphenyl)pyrimidin-4-yl]amino}propoxy)pyridine-3-carboxamide] | > 6.70 | > 6.30

The remaining lines, values ahead:

pIC50 (MTH1) | pIC50 (cancer cell) | Compound
> 6.70 | > 6.30 | CNS(=O)(=O)c1ccc(NCCCNc2cc(-c3cccc(Cl)c3C)nc(N)n2)cc1 [Example 144, 4-[3-[[2-amino-6-(3-chloro-2-methyl-phenyl)pyrimidin-4-yl]amino]propylamino]-N-methyl-benzenesulfonamide]
> 6.70 | > 6.30 | CC(=O)Nc1ccc(NCCNc2cc(-c3cccc(C)c3C)nc(N)n2)cc1C [Example 22, N-{4-[(2-{[2-amino-6-(2,3-dimethylphenyl)pyrimidin-4-yl]amino}ethyl)amino]-2-methylphenyl}acetamide]
> 6.70 | > 6.30 | Cc1c(Cl)cccc1-c1cc(NCCCNc2ccc(C(N)=O)cn2)nc(N)n1 [Example 167, 6-[3-[[2-amino-6-(3-chloro-2-methyl-phenyl)pyrimidin-4-yl]amino]propylamino]pyridine-3-carboxamide]
> 6.70 | > 6.30 | COc1cc(C)c(-c2cc(NCCc3ccc(S(N)(=O)=O)cc3)nc(N)n2)cc1C [Example 66, 4-(2-{[2-amino-6-(4-methoxy-2,5-dimethylphenyl)pyrimidin-4-yl]amino}ethyl)benzene-1-sulfonamide]
> 6.70 | > 6.30 | Cc1c(-c2cc(NCCc3ccc(C(N)=O)cc3)nc(N)n2)ccc(Cl)c1Cl [Example 78, 4-(2-{[2-amino-6-(3,4-dichloro-2-methylphenyl)pyrimidin-4-yl]amino}ethyl)benzamide]
> 6.70 | > 6.30 | CCCOC(=O)c1ccc(CCNc2cc(-c3cccc(Cl)c3C)nc(N)n2)cc1 [Example 184, propyl 4-[2-[[2-amino-6-(3-chloro-2-methyl-phenyl)pyrimidin-4-yl]amino]ethyl]benzoate]
> 6.70 | > 6.30 | Cc1c(Cl)cccc1-c1cc(NCCc2cccc(NC(=O)C3CC3)c2)nc(N)n1 [Example 84, N-[3-(2-{[2-amino-6-(3-chloro-2-methylphenyl)pyrimidin-4-yl]amino}ethyl)phenyl]cyclopropanecarboxamide]
> 6.70 | > 6.30 | Cc1cccc(-c2cc(NCCc3ccc(S(N)(=O)=O)cc3)nc(N)n2)c1Cl [Example 96, 4-[2-[[2-amino-6-(2-chloro-3-methyl-phenyl)pyrimidin-4-yl]amino]ethyl]benzenesulfonamide]
> 6.70 | > 6.30 | Cc1c(Cl)cc(Cl)cc1-c1cc(NCCc2ccc(S(N)(=O)=O)cc2)nc(N)n1 [Example 74, 4-(2-{[2-amino-6-(3,5-dichloro-2-methylphenyl)pyrimidin-4-yl]amino}ethyl)benzene-1-sulfonamide]
> 6.70 | > 6.30 | Cc1cc(Cl)cc(-c2cc(NCCc3ccc(S(N)(=O)=O)cc3)nc(N)n2)c1F [Example 73, 4-(2-{[2-amino-6-(5-chloro-2-fluoro-3-methylphenyl)pyrimidin-4-yl]amino}ethyl)benzene-1-sulfonamide]
> 6.70 | > 6.30 | Cc1c(Cl)cccc1-c1cc(NCCNc2ccc3c(c2)OCC(=O)N3)nc(N)n1 [Example 91, 7-[2-[[2-amino-6-(3-chloro-2-methyl-phenyl)pyrimidin-4-yl]amino]ethylamino]-4H-1,4-benzoxazin-3-one]
> 6.70 | > 6.30 | CCOC(=O)c1ccc(CCNc2cc(-c3cccc(Cl)c3C)nc(N)n2)cc1 [Example 183, ethyl 4-[2-[[2-amino-6-(3-chloro-2-methyl-phenyl)pyrimidin-4-yl]amino]ethyl]benzoate]
> 6.70 | > 6.30 | Cc1c(Cl)cccc1-c1cc(NCCCNc2ccc(C(N)=O)cc2)nc(N)n1 [Example 143, 4-[3-[[2-amino-6-(3-chloro-2-methyl-phenyl)pyrimidin-4-yl]amino]propylamino]benzamide]
